The text below walks through data of US6589961B2, “9-alkylamino-1-nitroacridine derivatives” (New York Medical College, priority 2000, dated 2003).

Where “and” joins values, the source holds several entries; their conditions need not be identical. Identical values can stand only once.

Assay type in all cases: in vivo
Assay [1] deals with ascites adenocarcinoma Walker 256. In words: Antitumor activity against ascites adenocarcinoma Walker 256 in rats (survival). The settings on record: Wistar rats; for Optimal dose: dose giving the highest antitumor activity, i.p. on days 3, 4 and 5 after tumor transplantation, five doses tested; for Antitumor activity against Walker256 (Survival) Test/Control: mean survival time of test group vs control at the optimal dose, i.p. on days 3, 4 and 5. As for the experimental part:
Tumors are transplanted weekly into Wistar rats by intraperitoneal inoculation of 10^6 tumor cells. In the experiments, Walker carcinosarcoma 256 cells are transplanted on day 0 in Wistar rats weighing 75-100 g. by i.p. injection of 10^6 cells per animal. Each acridine is administered i.p. on days 3, 4, and 5 after tumor transplantation. Five rats are in each group at a given drug dose level and a group of 10 rats served as control for all test groups. […] Each acridine is tested at five different doses. The activity of the drug T/C (%) is expressed as % increase in mean survival time (in days) of test group (T) to the mean survival time (in days) of the control (C). Usually, the antitumor activity is presented only for the optimal dose (O.D. mg/kg/day) of tested compounds, at which the highest antitumor activity is observed.

Another assay relates to Dunning G cells. In words: Antitumor activity in Dunning G induced tumors in Copenhagen rats. The following applies: two weeks after treatment withdrawal. On the procedure:
Four to five week old Copenhagen rats are purchased from Harlan Sprague Dawley, Indianapolis, Ind., and allowed to acclimate for one week, feeding on Purina 5001 rat chow. At the end of one week, the rats are randomized into different experimental groups. Body weights of the animals measured twice a week.
Live Dunning G cells (one million/rat) are injected subcutaneously in all animals to induce tumors. Dunning G cells are non-metastatic tumor producing prostate cancer cells derived from spontaneous tumors from Copenhagen rats. Dunning G and MAT-LyLu cells (Yedavelli et al, 1999, Int. J. Mol. Med. 4:243-248) are grown in RPMI 1640 containing 10% fetal bovine serum (FBS) supplemented with penicillin (50 IU/mL), streptomycin (50 μg/mL), 2 mM L-glutamine and 2.5 mM dexamethasone. Cells are fed twice a week and are trypsinized with 0.05% trypsin-EDTA at 70-80 percent cell confluency.
Animals are injected i.p twice a week with 9-(2′-hydroxyethylamino)-4-methyl-1-nitroacridine (0.8 or 1.0 mg/Kg body weight) 1-nitro-9-hydroxyethylaminoacridine (0.6 mg/Kg body weight) twice a week for three weeks. Injections are started on day 25 for animals injected with Dunning G cells when tumors are palpable (0.5 cm). All animals are housed in hanging cages with three/four animals per cage and had ad libitum access to food and drinking water and are kept on twelve hour diurnal cycle. All injections and tumor measurements are performed under light anesthesia (metofane inhalation). Experimental end point measurements include body weight, tumor incidence. The experiment is terminated when the tumor size in the control animals is 3 cms diameter. Sacrifice of the animals is done by carbon dioxide asphyxiation.
Stock solution of 9-(2′-hydroxyethylamino)-4-methyl-1-nitroacridine is made in dimethylsulfoxide at 0.16 mg/ml. All drugs for injection in animals are diluted in PBS such that the total volume injected is between 0.1 to 0.2 mL. Stock solution of 1-nitro-9-hydroxyethylaminoacridine is made in dimethylsulfoxide at 0.12 mg/ml.

In the next assay the test system is TSU cells. The assay is described as follows: Antitumor activity on human prostate tumor (TSU) xenografts in nude mice. The settings on record: Balb c/nu/nu mice. As for the experimental part:
Tumors are induced in six week old Balb c/nu/nu mice which are allowed to acclimate for two weeks by subcutaneous injection of 2×10^6 TSU cells per mouse. TSU cells are human prostate cancer cells (Iizumi et al., 1987, J. Urol. 137:1304-1306). TSU cells are grown in RPMI-1640 medium supplemented with 10% fetal bovine serum and the antibiotics penicillin (50 IU/ml), streptomycin (50 μg/ml) and 2 mM L-glutamine. Cells are fed with fresh media twice a week and are trypsinized using 0.05% trypsin-EDTA. Cells used for injection are always in the log phase of their growth (70-80%) confluent flask and cell viability is checked by trypan-blue exclusion test prior to injection. Only cells >95% […] are used.
Tumors are palpable in the mice by day 7 when treatment with the two drugs, mitoxantrone (0.6 mg/kg) and 9-(2′-hydroxyethylamino)-4-methyl-1-nitroacridine (0.8 mg/kg) is initiated. Treatment is continued twice weekly for three weeks. Mice are lightly anesthetized and tumors are measured and are weighed weekly. The stock concentrations of the drug are 0.12 mg/ml in PBS for mitoxantrone and 0.16 mg/ml in dimethylsulfoxide (DMSO) for 9-(2′-hydroxyethylamino)-4-methyl-1-nitroacridine. Mice are housed 5 animals/cage.

For “9-(4′-hydroxypropylamino)-7-methoxy-4-methyl-1-nitroacridine”, in assay [1], the Optimal dose stood at 8 mg/kg and the “Antitumor activity against Walker256 (Survival) Test/Control” value was found to be 183%.

As for `O=[N+]([O-])c1cccc2nc3ccccc3c(NCCO)c12` [1-nitro-9-hydroxyethylaminoacridine, reference compound], in the assay on Dunning G cells (0.6 mg/Kg body weight i.p. twice a week for three weeks (FIG. 1 legend says 0.8 mg/Kg)), the reduction of tumors is given as 50%.

For the compound `CC(=O)OCCNc1c2ccccc2nc2cccc([N+](=O)[O-])c12` [9-(2′-acetoxyethylamino)-1-nitroacridine], in assay [1], the Optimal dose is listed as 1 mg/kg and the “Antitumor activity against Walker256 (Survival) Test/Control” value was 167%.

As to `CC(=O)OCCNc1c2ccccc2nc2c(C)ccc([N+](=O)[O-])c12` [9-(2′-acetoxyethylamino)-4-methyl-1-nitroacridine], in assay [1], the Optimal dose stood at 8 mg/kg and the “Antitumor activity against Walker256 (Survival) Test/Control” value was 233%.

Regarding `COc1ccc2nc3c(C)ccc([N+](=O)[O-])c3c(NCCOC(C)=O)c2c1` [9-(2′-acetoxyethylamino)-7-methoxy-4-methyl-1-nitroacridine], in assay [1], the Optimal dose was determined as 25 mg/kg and the “Antitumor activity against Walker256 (Survival) Test/Control” value came out at 133%.

Turning to `CCCCOCCNc1c2ccccc2nc2c(C)ccc([N+](=O)[O-])c12` [9-(2′-butyloxyethylamino)-4-methyl-1-nitroacridine], in assay [1], the Optimal dose was determined as 8 mg/kg and the “Antitumor activity against Walker256 (Survival) Test/Control” value is listed as 217%.

As to `COc1ccc([N+](=O)[O-])c2c(NCCO)c3ccccc3nc12` [9-(2′-hydroxyethylamino)-4-methoxy-1-nitroacridine], in assay [1], the Optimal dose turned out to be 16 mg/kg and the “Antitumor activity against Walker256 (Survival) Test/Control” value came to 200%.

As to `Cc1ccc([N+](=O)[O-])c2c(NCCO)c3ccccc3nc12` [9-(2′-hydroxyethylamino)-4-methyl-1-nitroacridine], in assay [1], the Optimal dose came to 4 mg/kg and the “Antitumor activity against Walker256 (Survival) Test/Control” value is listed as 217%. For the same compound, the reduction of tumors in the assay with Dunning G cells (0.8 mg/kg i.p. twice a week for three weeks) was determined as 65%. The compound further displayed a reduction of tumors in the assay on Dunning G cells (1.0 mg/kg i.p. twice a week for three weeks) of 75%. Besides, in the assay with TSU cells (0.8 mg/kg twice weekly for three weeks from day 7, observation up to 11 weeks), the “effect on tumors (FIG. 2)” value is “reduction of the tumors until completely tumor free by five weeks and remained in force until 11 weeks”.

For the compound `COc1ccc2nc3cccc([N+](=O)[O-])c3c(NCCO)c2c1` [9-(2′-hydroxyethylamino)-7-methoxy-1-nitroacridine], in assay [1], the Optimal dose turned out to be 2 mg/kg; the “Antitumor activity against Walker256 (Survival) Test/Control” value was 150% and 200%.

Consider `COc1ccc2nc3c(C)ccc([N+](=O)[O-])c3c(NCCO)c2c1` [9-(2′-hydroxyethylamino)-7-methoxy-4-methyl-1-nitroacridine], for which, in assay [1], the Optimal dose was 16 mg/kg and the “Antitumor activity against Walker256 (Survival) Test/Control” value came to 233%.

As for `CCC(=O)OCCNc1c2ccccc2nc2cccc([N+](=O)[O-])c12` [9-(2′-propionoxyethylamino)-1-nitroacridine], in assay [1], the Optimal dose was found to be 1 mg/kg and the “Antitumor activity against Walker256 (Survival) Test/Control” value is 200%.

Turning to `CCC(=O)OCCNc1c2ccccc2nc2c(C)ccc([N+](=O)[O-])c12` [9-(2′-propionoxyethylamino)-4-methyl-1-nitroacridine], in assay [1], the Optimal dose came out at 8 mg/kg and the “Antitumor activity against Walker256 (Survival) Test/Control” value turned out to be 214%.

On to `CCC(=O)OC(C)CNc1c2ccccc2nc2c(C)ccc([N+](=O)[O-])c12` (stereo not drawn) [9-(2′-propionoxypropylamino)-4-methyl-1-nitroacridine], for which, in assay [1], the Optimal dose amounted to 8 mg/kg and the “Antitumor activity against Walker256 (Survival) Test/Control” value turned out to be 257%.

Turning to `CC(=O)OCCCNc1c2ccccc2nc2c(C)ccc([N+](=O)[O-])c12` [9-(3′-acetoxypropylamino)-4-methyl-1-nitroacridine], in assay [1], the Optimal dose turned out to be 8 mg/kg and the “Antitumor activity against Walker256 (Survival) Test/Control” value is on record as 157%.

With `COc1ccc2nc3c(C)ccc([N+](=O)[O-])c3c(NCCCOC(C)=O)c2c1` [9-(3′-acetoxypropylamino)-7-methoxy-4-methyl-1-nitroacridine], in assay [1], the Optimal dose is on record as 16 mg/kg and the “Antitumor activity against Walker256 (Survival) Test/Control” value is 217%.

With `COc1ccc([N+](=O)[O-])c2c(NCCCO)c3ccccc3nc12` [9-(3′-hydroxypropylamino)-4-methoxy-1-nitroacridine], in assay [1], the Optimal dose was determined as 2 mg/kg and the “Antitumor activity against Walker256 (Survival) Test/Control” value worked out at 157%.

Consider `Cc1ccc([N+](=O)[O-])c2c(NCCCO)c3ccccc3nc12` [9-(3′-hydroxypropylamino)-4-methyl-1-nitroacridine], for which, in assay [1], the Optimal dose was 2 mg/kg and the “Antitumor activity against Walker256 (Survival) Test/Control” value was determined as 233%.

For `COc1ccc2nc3cccc([N+](=O)[O-])c3c(NCCCO)c2c1` [9-(3′-hydroxypropylamino)-7-methoxy-1-nitroacridine], in assay [1], the Optimal dose was determined as 0.5 mg/kg; the “Antitumor activity against Walker256 (Survival) Test/Control” value is 182% and 229%.

On to `COc1ccc2nc3c(C)ccc([N+](=O)[O-])c3c(NCCCO)c2c1` [9-(3′-hydroxypropylamino)-7-methoxy-4-methyl-1-nitroacridine], for which, in assay [1], the Optimal dose was found to be 16 mg/kg and the “Antitumor activity against Walker256 (Survival) Test/Control” value turned out to be 183%.

As for `COc1ccc([N+](=O)[O-])c2c(NCCCCO)c3ccccc3nc12` [9-(4′-hydroxybutylamino)-4-methoxy-1-nitroacridine], in assay [1], the Optimal dose is recorded as 32 mg/kg and the “Antitumor activity against Walker256 (Survival) Test/Control” value stood at 200%.

Take `COc1ccc2nc3cccc([N+](=O)[O-])c3c(NCCCCO)c2c1` [9-(4′-hydroxybutylamino)-7-methoxy-1-nitroacridine]: in assay [1], the Optimal dose is 2 mg/kg and the “Antitumor activity against Walker256 (Survival) Test/Control” value is 157%.

For the compound `O=C1c2c(O)ccc(O)c2C(=O)c2c(NCCNCCO)ccc(NCCNCCO)c21` [mitoxantrone, reference compound], the “effect on tumors (FIG. 2)” value with TSU cells (0.6 mg/kg twice weekly for three weeks from day 7) is “showed a reduction till three weeks and the tumors started growing eight weeks after withdrawal of therapy”.
